Measured values from ChEMBL document CHEMBL5653615 (J Biol Chem, 2013).

Columns and labels:
[1] = biological target: Vascular endothelial growth factor receptor 3 (Homo sapiens) (UniProt P35916); test: Inhibition of human FLT4 at 18.6 nM by HotSpot assay relative to control
[2] = biological target: Mitogen-activated protein kinase 9 (Homo sapiens) (UniProt P45984); test: Inhibition of human JNK2 at 18.6 nM by HotSpot assay relative to control
[3] = biological target: Cyclin-dependent kinase 5/CDK5 activator 1 (Homo sapiens) (UniProt Q00535+Q15078); test: Inhibition of human CDK5/p35 at 18.6 nM by HotSpot assay relative to control; type: protein-complex assay
[4] = biological target: Tyrosine-protein kinase HCK (Homo sapiens) (UniProt P08631); test: Inhibition of human HCK at 18.6 nM by HotSpot assay relative to control
[5] = biological target: Mast/stem cell growth factor receptor Kit (Homo sapiens) (UniProt P10721); test: Inhibition of human c-Kit at 18.6 nM by HotSpot assay relative to control
[6] = biological target: Casein kinase II subunit alpha' (Homo sapiens) (UniProt P19784); test: Inhibition of human CK2a2 at 18.6 nM by HotSpot assay relative to control
[7] = biological target: CDK9/Cyclin K (Homo sapiens) (UniProt P50750+O75909); test: Inhibition of human CDK9/cyclin K at 18.6 nM by HotSpot assay relative to control; type: protein-complex assay
[8] = biological target: Macrophage-stimulating protein receptor (Homo sapiens) (UniProt Q04912); test: Inhibition of human MST1R at 18.6 nM by HotSpot assay relative to control
[9] = biological target: T1, cGMP-dependent protein kinase 1 (Homo sapiens) (UniProt Q13976); test: Inhibition of human PKG1a at 18.6 nM by HotSpot assay relative to control
T1 sequence (whole entry): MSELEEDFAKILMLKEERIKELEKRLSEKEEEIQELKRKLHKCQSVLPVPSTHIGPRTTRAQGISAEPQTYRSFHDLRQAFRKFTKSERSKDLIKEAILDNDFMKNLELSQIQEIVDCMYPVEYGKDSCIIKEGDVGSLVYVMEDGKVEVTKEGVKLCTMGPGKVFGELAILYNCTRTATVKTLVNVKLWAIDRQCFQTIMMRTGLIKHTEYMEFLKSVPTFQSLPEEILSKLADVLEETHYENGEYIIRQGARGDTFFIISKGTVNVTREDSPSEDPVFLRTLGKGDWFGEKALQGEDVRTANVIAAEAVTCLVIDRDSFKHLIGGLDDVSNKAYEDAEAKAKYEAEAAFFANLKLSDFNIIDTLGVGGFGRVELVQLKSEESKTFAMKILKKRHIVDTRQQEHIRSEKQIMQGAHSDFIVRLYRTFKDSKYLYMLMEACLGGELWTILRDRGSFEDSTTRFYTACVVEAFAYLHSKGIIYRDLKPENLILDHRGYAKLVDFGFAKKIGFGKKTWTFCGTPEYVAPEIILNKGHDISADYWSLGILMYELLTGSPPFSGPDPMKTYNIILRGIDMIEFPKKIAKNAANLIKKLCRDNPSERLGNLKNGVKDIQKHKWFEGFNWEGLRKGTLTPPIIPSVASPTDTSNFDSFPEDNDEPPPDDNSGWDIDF

[10] = biological target: T2, Megakaryocyte-associated tyrosine-protein kinase (Homo sapiens) (UniProt P42679); test: Inhibition of human CTK at 18.6 nM by HotSpot assay relative to control
T2 sequence (whole entry): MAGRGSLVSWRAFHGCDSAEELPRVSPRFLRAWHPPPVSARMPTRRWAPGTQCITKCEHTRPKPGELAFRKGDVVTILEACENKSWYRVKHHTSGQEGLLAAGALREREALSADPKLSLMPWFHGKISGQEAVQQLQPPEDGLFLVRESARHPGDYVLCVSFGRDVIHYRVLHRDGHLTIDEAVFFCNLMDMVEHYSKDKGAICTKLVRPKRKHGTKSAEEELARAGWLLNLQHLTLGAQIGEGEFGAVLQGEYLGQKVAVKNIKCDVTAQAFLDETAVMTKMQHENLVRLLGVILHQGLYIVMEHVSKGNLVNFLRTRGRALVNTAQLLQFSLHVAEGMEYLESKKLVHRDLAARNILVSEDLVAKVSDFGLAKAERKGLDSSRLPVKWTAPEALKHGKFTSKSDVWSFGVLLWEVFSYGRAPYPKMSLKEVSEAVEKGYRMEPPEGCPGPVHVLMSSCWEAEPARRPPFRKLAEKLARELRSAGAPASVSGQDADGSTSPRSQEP

[11] = biological target: Calcium/calmodulin-dependent protein kinase type 1 (Homo sapiens) (UniProt Q14012); test: Inhibition of human CAMK1a at 1.82 nM by HotSpot assay relative to control
[12] = biological target: Non-receptor tyrosine-protein kinase TYK2 (Homo sapiens) (UniProt P29597); test: Inhibition of human TYK2 at 1.82 nM by HotSpot assay relative to control
[13] = biological target: Receptor-interacting serine/threonine-protein kinase 2 (Homo sapiens) (UniProt O43353); test: Inhibition of human RIPK2 at 1.82 nM by HotSpot assay relative to control
[14] = biological target: T3, cAMP-dependent protein kinase catalytic subunit PRKX (Homo sapiens) (UniProt P51817); test: Inhibition of human PRKX at 1.82 nM by HotSpot assay relative to control
T3 sequence (whole entry): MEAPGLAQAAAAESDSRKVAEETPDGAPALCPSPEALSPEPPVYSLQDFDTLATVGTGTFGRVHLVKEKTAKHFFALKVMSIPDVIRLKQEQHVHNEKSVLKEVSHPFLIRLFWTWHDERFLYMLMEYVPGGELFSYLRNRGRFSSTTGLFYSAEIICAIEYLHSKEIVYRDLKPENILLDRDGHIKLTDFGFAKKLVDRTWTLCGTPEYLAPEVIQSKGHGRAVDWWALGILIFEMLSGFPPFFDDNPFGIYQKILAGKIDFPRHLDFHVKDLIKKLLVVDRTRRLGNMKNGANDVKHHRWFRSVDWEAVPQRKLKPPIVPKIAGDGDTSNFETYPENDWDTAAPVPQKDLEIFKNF

[15] = biological target: Calcium/calmodulin-dependent protein kinase type II subunit alpha (Homo sapiens) (UniProt Q9UQM7); test: Inhibition of human CAMK2a at 1.82 nM by HotSpot assay relative to control
[16] = biological target: T4, Dual specificity mitogen-activated protein kinase kinase 6 (Homo sapiens) (UniProt P52564); test: Inhibition of human MKK6 at 1.82 nM by HotSpot assay relative to control
T4 sequence (whole entry): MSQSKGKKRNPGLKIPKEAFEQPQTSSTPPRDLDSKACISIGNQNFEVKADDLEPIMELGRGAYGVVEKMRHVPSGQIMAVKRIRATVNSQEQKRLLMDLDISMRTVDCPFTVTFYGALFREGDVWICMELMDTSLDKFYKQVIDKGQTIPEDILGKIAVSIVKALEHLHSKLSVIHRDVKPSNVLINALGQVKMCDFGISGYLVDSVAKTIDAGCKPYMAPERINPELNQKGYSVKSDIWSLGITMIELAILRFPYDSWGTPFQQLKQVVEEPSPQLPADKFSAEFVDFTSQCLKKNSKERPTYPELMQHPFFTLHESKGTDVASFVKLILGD

Chain of Macrophage-stimulating protein receptor (Homo sapiens) (Q04912 25-304 limits assumed): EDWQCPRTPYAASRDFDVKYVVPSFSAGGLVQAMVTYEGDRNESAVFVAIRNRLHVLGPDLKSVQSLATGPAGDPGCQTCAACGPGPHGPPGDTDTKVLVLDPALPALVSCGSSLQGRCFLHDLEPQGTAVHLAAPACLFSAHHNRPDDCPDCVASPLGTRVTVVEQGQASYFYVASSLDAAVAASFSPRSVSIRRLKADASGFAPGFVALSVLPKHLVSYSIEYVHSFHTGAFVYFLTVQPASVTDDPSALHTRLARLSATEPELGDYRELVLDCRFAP
Chain of Macrophage-stimulating protein receptor (Homo sapiens) (Q04912 310-1400 limits assumed): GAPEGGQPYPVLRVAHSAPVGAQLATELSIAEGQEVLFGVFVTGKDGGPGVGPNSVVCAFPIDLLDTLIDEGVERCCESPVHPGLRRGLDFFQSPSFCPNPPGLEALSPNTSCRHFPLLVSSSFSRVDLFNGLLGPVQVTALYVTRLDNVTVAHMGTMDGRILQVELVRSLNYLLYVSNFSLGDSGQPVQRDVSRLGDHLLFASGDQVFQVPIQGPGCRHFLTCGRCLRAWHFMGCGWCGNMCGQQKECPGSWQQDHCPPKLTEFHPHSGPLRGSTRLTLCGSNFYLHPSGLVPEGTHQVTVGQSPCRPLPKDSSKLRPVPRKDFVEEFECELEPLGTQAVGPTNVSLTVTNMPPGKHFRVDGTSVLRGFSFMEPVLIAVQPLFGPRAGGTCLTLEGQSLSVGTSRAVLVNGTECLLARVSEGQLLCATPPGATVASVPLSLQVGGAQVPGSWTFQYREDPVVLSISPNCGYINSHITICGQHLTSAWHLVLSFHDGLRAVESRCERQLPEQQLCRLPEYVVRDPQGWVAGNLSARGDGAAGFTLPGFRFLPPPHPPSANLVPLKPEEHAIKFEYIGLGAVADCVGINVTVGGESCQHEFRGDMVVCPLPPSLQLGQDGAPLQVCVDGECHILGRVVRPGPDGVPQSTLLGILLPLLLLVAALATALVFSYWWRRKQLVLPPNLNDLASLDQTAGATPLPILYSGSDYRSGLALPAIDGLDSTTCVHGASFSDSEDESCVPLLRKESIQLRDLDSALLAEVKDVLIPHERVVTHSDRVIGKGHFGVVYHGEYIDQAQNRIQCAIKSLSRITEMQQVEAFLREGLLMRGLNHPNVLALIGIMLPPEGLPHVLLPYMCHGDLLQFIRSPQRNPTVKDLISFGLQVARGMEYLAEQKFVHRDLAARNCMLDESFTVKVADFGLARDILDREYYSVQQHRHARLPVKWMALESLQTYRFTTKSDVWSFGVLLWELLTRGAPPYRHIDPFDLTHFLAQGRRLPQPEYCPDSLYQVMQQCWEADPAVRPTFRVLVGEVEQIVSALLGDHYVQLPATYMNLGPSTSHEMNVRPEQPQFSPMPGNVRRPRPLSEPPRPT
Chain of Tyrosine-protein kinase HCK (Homo sapiens) (P08631 2-526 limits assumed): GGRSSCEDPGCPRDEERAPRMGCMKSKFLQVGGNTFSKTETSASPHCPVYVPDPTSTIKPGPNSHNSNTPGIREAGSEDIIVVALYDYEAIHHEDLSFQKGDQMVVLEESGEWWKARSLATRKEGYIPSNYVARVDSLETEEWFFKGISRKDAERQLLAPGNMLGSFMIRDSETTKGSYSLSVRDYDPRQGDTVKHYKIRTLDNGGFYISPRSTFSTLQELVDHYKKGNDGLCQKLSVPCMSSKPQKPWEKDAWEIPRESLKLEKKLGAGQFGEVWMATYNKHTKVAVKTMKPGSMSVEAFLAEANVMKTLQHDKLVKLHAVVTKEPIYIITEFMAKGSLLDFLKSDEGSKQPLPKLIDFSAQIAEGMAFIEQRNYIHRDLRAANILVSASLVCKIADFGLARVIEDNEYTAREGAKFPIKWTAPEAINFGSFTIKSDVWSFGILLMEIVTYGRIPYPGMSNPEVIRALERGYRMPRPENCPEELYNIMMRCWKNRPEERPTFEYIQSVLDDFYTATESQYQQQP
Chain of Cyclin-dependent kinase 5/CDK5 activator 1 (Homo sapiens) (Q00535 whole entry): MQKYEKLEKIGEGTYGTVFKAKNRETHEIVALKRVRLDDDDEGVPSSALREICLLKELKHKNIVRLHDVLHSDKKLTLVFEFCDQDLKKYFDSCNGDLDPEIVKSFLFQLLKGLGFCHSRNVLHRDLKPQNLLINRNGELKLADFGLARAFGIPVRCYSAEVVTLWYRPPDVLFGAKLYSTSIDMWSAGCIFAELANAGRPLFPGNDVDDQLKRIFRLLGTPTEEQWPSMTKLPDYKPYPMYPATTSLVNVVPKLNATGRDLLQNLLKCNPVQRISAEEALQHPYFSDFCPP
Chain of Cyclin-dependent kinase 5/CDK5 activator 1 (Homo sapiens) (Q15078 99-307 partner limits assumed): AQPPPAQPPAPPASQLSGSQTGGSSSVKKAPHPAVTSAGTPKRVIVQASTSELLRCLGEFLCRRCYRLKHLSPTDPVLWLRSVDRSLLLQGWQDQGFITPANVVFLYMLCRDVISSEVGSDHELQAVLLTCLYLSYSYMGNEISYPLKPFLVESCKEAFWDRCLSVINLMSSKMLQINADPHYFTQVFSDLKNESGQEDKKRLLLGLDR
Chain of Mast/stem cell growth factor receptor Kit (Homo sapiens) (P10721 whole entry): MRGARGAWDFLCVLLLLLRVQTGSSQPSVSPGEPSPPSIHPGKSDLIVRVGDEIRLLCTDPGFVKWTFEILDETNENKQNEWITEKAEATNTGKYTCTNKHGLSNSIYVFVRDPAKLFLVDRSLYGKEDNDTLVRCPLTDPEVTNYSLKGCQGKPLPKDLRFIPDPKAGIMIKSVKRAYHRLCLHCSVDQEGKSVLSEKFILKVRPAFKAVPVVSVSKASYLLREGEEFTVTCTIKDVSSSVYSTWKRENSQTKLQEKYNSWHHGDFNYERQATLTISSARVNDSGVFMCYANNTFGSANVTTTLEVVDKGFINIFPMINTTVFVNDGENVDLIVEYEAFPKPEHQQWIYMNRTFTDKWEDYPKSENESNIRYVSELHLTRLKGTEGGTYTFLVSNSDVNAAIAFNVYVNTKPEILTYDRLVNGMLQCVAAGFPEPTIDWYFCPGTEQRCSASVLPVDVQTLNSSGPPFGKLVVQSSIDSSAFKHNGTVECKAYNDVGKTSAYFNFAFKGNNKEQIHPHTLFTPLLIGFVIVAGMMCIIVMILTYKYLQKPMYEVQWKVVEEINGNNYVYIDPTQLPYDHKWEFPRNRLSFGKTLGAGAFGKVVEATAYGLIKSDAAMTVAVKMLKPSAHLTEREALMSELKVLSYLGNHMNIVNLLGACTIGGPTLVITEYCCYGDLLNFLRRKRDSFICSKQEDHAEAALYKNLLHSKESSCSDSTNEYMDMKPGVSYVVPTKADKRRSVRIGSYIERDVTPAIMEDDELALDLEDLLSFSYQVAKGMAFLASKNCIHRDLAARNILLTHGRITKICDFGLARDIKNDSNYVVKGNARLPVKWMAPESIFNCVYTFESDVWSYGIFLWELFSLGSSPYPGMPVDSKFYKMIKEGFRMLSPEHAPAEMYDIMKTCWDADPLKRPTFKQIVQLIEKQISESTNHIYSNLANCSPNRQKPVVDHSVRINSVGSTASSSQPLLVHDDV
Chain of Calcium/calmodulin-dependent protein kinase type 1 (Homo sapiens) (Q14012 whole entry, looked up): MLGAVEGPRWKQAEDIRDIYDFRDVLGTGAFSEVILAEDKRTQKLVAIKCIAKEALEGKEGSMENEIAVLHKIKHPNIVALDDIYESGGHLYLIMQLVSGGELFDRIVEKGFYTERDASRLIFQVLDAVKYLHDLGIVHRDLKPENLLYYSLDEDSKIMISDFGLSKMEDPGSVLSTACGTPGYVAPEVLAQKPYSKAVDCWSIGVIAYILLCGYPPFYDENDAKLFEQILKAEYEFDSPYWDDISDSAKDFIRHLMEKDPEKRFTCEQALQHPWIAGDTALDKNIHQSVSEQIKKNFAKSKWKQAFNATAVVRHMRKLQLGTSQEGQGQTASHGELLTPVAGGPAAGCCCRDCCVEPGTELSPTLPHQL
Chain of Calcium/calmodulin-dependent protein kinase type II subunit alpha (Homo sapiens) (Q9UQM7 whole entry): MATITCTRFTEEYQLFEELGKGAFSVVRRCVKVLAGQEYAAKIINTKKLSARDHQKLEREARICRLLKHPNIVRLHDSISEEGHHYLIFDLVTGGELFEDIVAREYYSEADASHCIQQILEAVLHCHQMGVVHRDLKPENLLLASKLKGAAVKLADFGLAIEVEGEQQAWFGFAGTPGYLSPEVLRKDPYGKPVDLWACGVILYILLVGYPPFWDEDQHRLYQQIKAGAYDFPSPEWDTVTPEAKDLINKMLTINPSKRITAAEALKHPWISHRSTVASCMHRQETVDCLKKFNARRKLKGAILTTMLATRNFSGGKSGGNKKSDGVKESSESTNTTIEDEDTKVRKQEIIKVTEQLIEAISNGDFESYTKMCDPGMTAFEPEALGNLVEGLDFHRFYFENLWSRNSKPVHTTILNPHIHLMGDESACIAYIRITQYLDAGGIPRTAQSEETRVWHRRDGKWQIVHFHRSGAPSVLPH
Chain of Casein kinase II subunit alpha' (Homo sapiens) (P19784 whole entry, looked up): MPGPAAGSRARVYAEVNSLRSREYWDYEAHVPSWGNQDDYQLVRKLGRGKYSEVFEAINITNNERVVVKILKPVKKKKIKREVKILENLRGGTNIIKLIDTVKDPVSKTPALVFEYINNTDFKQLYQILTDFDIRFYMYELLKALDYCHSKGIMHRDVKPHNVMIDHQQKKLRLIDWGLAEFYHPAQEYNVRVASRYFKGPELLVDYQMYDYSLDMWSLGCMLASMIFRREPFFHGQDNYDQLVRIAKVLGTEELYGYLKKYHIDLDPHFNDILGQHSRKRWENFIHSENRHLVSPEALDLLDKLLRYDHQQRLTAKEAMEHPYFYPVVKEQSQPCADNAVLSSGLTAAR
Chain of Mitogen-activated protein kinase 9 (Homo sapiens) (P45984 whole entry, looked up): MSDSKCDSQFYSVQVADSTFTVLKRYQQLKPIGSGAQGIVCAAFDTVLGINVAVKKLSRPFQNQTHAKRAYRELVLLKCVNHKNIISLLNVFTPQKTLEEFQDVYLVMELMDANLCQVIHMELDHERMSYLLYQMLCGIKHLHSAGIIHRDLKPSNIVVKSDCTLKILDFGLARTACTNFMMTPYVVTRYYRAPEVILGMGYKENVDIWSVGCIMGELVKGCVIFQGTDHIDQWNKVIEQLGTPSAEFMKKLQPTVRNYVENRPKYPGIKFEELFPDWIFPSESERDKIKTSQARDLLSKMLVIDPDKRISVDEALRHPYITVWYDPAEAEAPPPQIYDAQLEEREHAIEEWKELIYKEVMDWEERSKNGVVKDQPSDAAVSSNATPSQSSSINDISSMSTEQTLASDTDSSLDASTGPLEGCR

Structure (SMILES): C[C@]1(O)C[C@@H](c2nc(-c3ccc4ccc(-c5ccccc5)nc4c3)c3c(N)nccn32)C1
- inhibition [1]: -2.25%
- inhibition [2]: -2.37%
- inhibition [3]: -1.84%
- inhibition [4]: 10.3%
- inhibition [5]: 2.65%
- inhibition [6]: 38.2%
- inhibition [7]: 1.45%
- inhibition [8]: 0.1%
- inhibition [9]: 5.49%
- inhibition [10]: -2.07%

Structure (SMILES): C[C@@]1(C(=O)Nc2ccc(F)nc2)CCCN1c1nc(Nc2cc(C3CC3)n[nH]2)c2cccn2n1
- inhibition [11]: 2.2%
- inhibition [12]: 1.02%
- inhibition [13]: 6.56%
- inhibition [14]: 0.19%
- inhibition [15]: -2.76%
- inhibition [16]: 3.26%
